Results published in ChEMBL document CHEMBL5303573, “Mapping human microbiome drug metabolism by gut bacteria and their genes” (Nature, 2019).

What was measured:
[1] = The drug is tested on Clostridium ramosum strain: DSM1402 for biotransformation. The drug concentrations were measured before and after a 12-h incubation by liquid-chromatography-coupled mass spectrometry (LC–MS); conditions: thomasclavelia ramosa, 2 µM
[2] = bacteroides fragilis, 12 h, 2 µM
Description: The drug is tested on Bacteroides fragilis strain: DS-208 for biotransformation. The drug concentrations were measured before and after a 12-h incubation by liquid-chromatography-coupled mass spectrometry (LC–MS)

[3] = The drug is tested on Clostridium sporogenes strain: ATCC15579 for biotransformation. The drug concentrations were measured before and after a 12-h incubation by liquid-chromatography-coupled mass spectrometry (LC–MS); conditions: 2 µM
[4] = The drug is tested on Bacteroides uniformis strain: ATCC8492 for biotransformation. The drug concentrations were measured before and after a 12-h incubation by liquid-chromatography-coupled mass spectrometry (LC–MS); conditions: 2 µM
[5] = The drug is tested on Providencia rettgeri strain: DSM1131 for biotransformation. The drug concentrations were measured before and after a 12-h incubation by liquid-chromatography-coupled mass spectrometry (LC–MS); format: ADME; set-up: dose 2 uM, timepoint 0 vs 12 hours; conditions: 2 µM
[6] = The drug is tested on Parabacteroides merdae strain: ATCC43184 for biotransformation. The drug concentrations were measured before and after a 12-h incubation by liquid-chromatography-coupled mass spectrometry (LC–MS); conditions: 2 µM
[7] = bacteroides eggerthii, 12 h, 2 µM
Description: The drug is tested on Bacteroides eggerthii strain: DSM20697 for biotransformation. The drug concentrations were measured before and after a 12-h incubation by liquid-chromatography-coupled mass spectrometry (LC–MS)

[8] = The drug is tested on Bifidobacterium breve strain: DSM20213 for biotransformation. The drug concentrations were measured before and after a 12-h incubation by liquid-chromatography-coupled mass spectrometry (LC–MS); conditions: 2 µM
[9] = The drug is tested on Bacteroides sp. WH2 strain: WH2 for biotransformation. The drug concentrations were measured before and after a 12-h incubation by liquid-chromatography-coupled mass spectrometry (LC–MS); conditions: bacteroides sp. wh2, 12 h, 2 µM
[10] = limosilactobacillus reuteri cf48-3a, 12 h, 2 µM
Description: The drug is tested on Lactobacillus reuteri CF48-3A strain: BEI HM-102 for biotransformation. The drug concentrations were measured before and after a 12-h incubation by liquid-chromatography-coupled mass spectrometry (LC–MS)

[11] = bacteroides fragilis, 12 h, 2 µM; remark: listed apart in the source
Description: The drug is tested on Bacteroides fragilis strain: NCTC 9343 for biotransformation. The drug concentrations were measured before and after a 12-h incubation by liquid-chromatography-coupled mass spectrometry (LC–MS)

[12] = The drug is tested on Clostridium symbiosum strain: ATCC14940 for biotransformation. The drug concentrations were measured before and after a 12-h incubation by liquid-chromatography-coupled mass spectrometry (LC–MS); conditions: 2 µM
[13] = bacteroides stercoris, 12 h, 2 µM
Description: The drug is tested on Bacteroides stercoris strain: ATCC43183 for biotransformation. The drug concentrations were measured before and after a 12-h incubation by liquid-chromatography-coupled mass spectrometry (LC–MS)

[14] = The drug is tested on Bifidobacterium ruminantium strain: fecal isolate for biotransformation. The drug concentrations were measured before and after a 12-h incubation by liquid-chromatography-coupled mass spectrometry (LC–MS); conditions: 2 µM
[15] = The drug is tested on Edwardsiella tarda strain: ATCC23685 for biotransformation. The drug concentrations were measured before and after a 12-h incubation by liquid-chromatography-coupled mass spectrometry (LC–MS); conditions: 2 µM
[16] = The drug is tested on Bacteroides vulgatus strain: ATCC8482 for biotransformation. The drug concentrations were measured before and after a 12-h incubation by liquid-chromatography-coupled mass spectrometry (LC–MS); conditions: phocaeicola vulgatus, 2 µM
[17] = The drug is tested on Blautia luti strain: DSM14534 for biotransformation. The drug concentrations were measured before and after a 12-h incubation by liquid-chromatography-coupled mass spectrometry (LC–MS); format: ADME; set-up: dose 2 uM, timepoint 0 vs 12 hours; conditions: 2 µM
[18] = The drug is tested on Bacteroides caccae strain: ATCC43185 for biotransformation. The drug concentrations were measured before and after a 12-h incubation by liquid-chromatography-coupled mass spectrometry (LC–MS); conditions: 2 µM
[19] = akkermansia muciniphila, 12 h, 2 µM
Description: The drug is tested on Akkermansia muciniphila strain: ATCC BAA-835 for biotransformation. The drug concentrations were measured before and after a 12-h incubation by liquid-chromatography-coupled mass spectrometry (LC–MS)

[20] = parabacteroides johnsonii, 12 h, 2 µM
Description: The drug is tested on Parabacteroides johnsonii strain: DSM18315 for biotransformation. The drug concentrations were measured before and after a 12-h incubation by liquid-chromatography-coupled mass spectrometry (LC–MS)

SMILES	Bacterial Biotransformation [1]	Bacterial Biotransformation [2]	Bacterial Biotransformation [3]	Bacterial Biotransformation [4]	Bacterial Biotransformation [5]	Bacterial Biotransformation [6]	Bacterial Biotransformation [7]	Bacterial Biotransformation [8]	Bacterial Biotransformation [9]	Bacterial Biotransformation [10]	Bacterial Biotransformation [11]	Bacterial Biotransformation [12]	Bacterial Biotransformation [13]	Bacterial Biotransformation [14]	Bacterial Biotransformation [15]	Bacterial Biotransformation [16]	Bacterial Biotransformation [17]	Bacterial Biotransformation [18]	Bacterial Biotransformation [19]	Bacterial Biotransformation [20]
Br.COc1ccc2c(c1)[C@]13CCCC[C@@H]1[C@H](C2)N(C)CC3.O [DEXTROMETHORPHAN HYDROBROMIDE]	Compound NOT metabolized	Compound NOT metabolized	Compound NOT metabolized	Compound NOT metabolized	Compound NOT metabolized	Compound NOT metabolized	Compound NOT metabolized	Compound NOT metabolized	Compound NOT metabolized	Compound NOT metabolized	Compound NOT metabolized	Compound NOT metabolized	Compound NOT metabolized	Compound NOT metabolized	Compound NOT metabolized	Compound NOT metabolized	Compound NOT metabolized	Compound NOT metabolized	–	–
O=C(Nc1ccccc1)OCC(CN1CCCCC1)OC(=O)Nc1ccccc1 (configuration not stated) [DIPERODON]	Compound NOT metabolized	Compound NOT metabolized	Compound NOT metabolized	Compound NOT metabolized	Compound NOT metabolized	Compound NOT metabolized	Compound NOT metabolized	Compound NOT metabolized	Compound NOT metabolized	Compound NOT metabolized	Compound NOT metabolized	Compound NOT metabolized	Compound NOT metabolized	Compound NOT metabolized	Compound NOT metabolized	Compound NOT metabolized	Compound NOT metabolized	Compound NOT metabolized	Compound NOT metabolized	–
CCOC(=O)[C@H](CCc1ccccc1)N[C@@H](C)C(=O)N1CCC[C@H]1C(=O)O.O=C(O)/C=C\C(=O)O [ENALAPRIL MALEATE]	Compound NOT metabolized	Compound NOT metabolized	Compound NOT metabolized	Compound NOT metabolized	Compound NOT metabolized	Compound NOT metabolized	Compound NOT metabolized	Compound NOT metabolized	Compound NOT metabolized	Compound NOT metabolized	Compound NOT metabolized	Compound NOT metabolized	Compound NOT metabolized	Compound NOT metabolized	Compound NOT metabolized	Compound NOT metabolized	Compound NOT metabolized	Compound NOT metabolized	Compound NOT metabolized	–
CN1C(=O)CC(C)(c2ccccc2)C1=O (configuration not stated) [METHSUXIMIDE]	Compound NOT metabolized	Compound NOT metabolized	Compound NOT metabolized	Compound NOT metabolized	Compound NOT metabolized	Compound NOT metabolized	Compound NOT metabolized	Compound NOT metabolized	Compound NOT metabolized	–	Compound NOT metabolized	Compound NOT metabolized	Compound NOT metabolized	Compound NOT metabolized	Compound NOT metabolized	–	Compound NOT metabolized	Compound NOT metabolized	–	Compound NOT metabolized
CC(C)[C@H]1CC[C@H](C(=O)N[C@H](Cc2ccccc2)C(=O)O)CC1 [NATEGLINIDE]	Compound NOT metabolized	Compound metabolized	Compound NOT metabolized	Compound metabolized	Compound NOT metabolized	Compound NOT metabolized	Compound NOT metabolized	Compound NOT metabolized	Compound NOT metabolized	Compound NOT metabolized	–	Compound NOT metabolized	Compound NOT metabolized	Compound NOT metabolized	Compound NOT metabolized	Compound metabolized	–	Compound NOT metabolized	Compound NOT metabolized	–
CCc1nn(CCCN2CCN(c3cccc(Cl)c3)CC2)c(=O)n1CCOc1ccccc1 [NEFAZODONE]	Compound NOT metabolized	Compound NOT metabolized	Compound NOT metabolized	–	Compound NOT metabolized	Compound NOT metabolized	Compound NOT metabolized	Compound NOT metabolized	Compound NOT metabolized	Compound NOT metabolized	Compound NOT metabolized	Compound NOT metabolized	Compound NOT metabolized	Compound NOT metabolized	Compound NOT metabolized	–	Compound NOT metabolized	Compound NOT metabolized	Compound NOT metabolized	Compound NOT metabolized
CN(C)C(=O)Oc1cccc([N+](C)(C)C)c1.[Br-] [NEOSTIGMINE BROMIDE]	Compound NOT metabolized	Compound metabolized	Compound NOT metabolized	Compound metabolized	Compound NOT metabolized	Compound metabolized	–	Compound NOT metabolized	Compound NOT metabolized	Compound NOT metabolized	Compound metabolized	Compound NOT metabolized	Compound NOT metabolized	Compound NOT metabolized	Compound NOT metabolized	–	Compound NOT metabolized	Compound NOT metabolized	–	Compound NOT metabolized
NC(=O)N1c2ccccc2CC(=O)c2ccccc21 [OXCARBAZEPINE]	Compound metabolized	–	Compound metabolized	Compound metabolized	Compound metabolized	Compound NOT metabolized	Compound NOT metabolized	Compound NOT metabolized	Compound NOT metabolized	Compound metabolized	Compound NOT metabolized	Compound metabolized	Compound metabolized	Compound metabolized	Compound metabolized	–	Compound metabolized	Compound NOT metabolized	Compound metabolized	–
COc1ccc(Cc2nccc3cc(OC)c(OC)cc23)cc1OC [PAPAVERINE]	Compound NOT metabolized	Compound NOT metabolized	Compound NOT metabolized	–	Compound NOT metabolized	Compound NOT metabolized	Compound NOT metabolized	Compound NOT metabolized	Compound NOT metabolized	Compound NOT metabolized	–	Compound NOT metabolized	Compound NOT metabolized	Compound NOT metabolized	Compound NOT metabolized	–	Compound NOT metabolized	Compound NOT metabolized	–	–
